In brackets after ≈: the same amount, converted by molar mass.
Assay: physchem
Conditions: water

Row | solubility [µg/mL] | Compound
1 | 330 (≈ 600 µM) | Cc1cccc(Br)c1C(=O)N[C@@H](Cc1ccc(NC(=O)c2c(Cl)cccc2Cl)cc1)C(=O)O
2 | 219 (≈ 462 µM) | COc1cccc(OC)c1-c1ccc(C[C@H](NC(=O)c2c(Cl)cccc2Cl)C(=O)O)cc1
